Measured values taken from patent US20250302815A1, “PROTEIN TYROSINE PHOSPHATASE TARGETING LIGANDS” (CALICO LIFE SCIENCES LLC, priority 2021, published 2025).
One block for each compound: values may come before it.

Tests used:
[1] = molecular target: T1, PTPN2 (HiBIT-PTPN2 in 293T.109 cells) (Homo sapiens, UniProt P17706); assay: HiBiT Degradation 293T.109 PTPN2 (Nano-Glo HiBiT Lytic Assay); assay type: cell-based; settings: 24.0 hours
T1 construct: expressed in transfected cells; host or cells: 293T.109 (293T WT from ATCC)
T1 sequence (P17706 1-415): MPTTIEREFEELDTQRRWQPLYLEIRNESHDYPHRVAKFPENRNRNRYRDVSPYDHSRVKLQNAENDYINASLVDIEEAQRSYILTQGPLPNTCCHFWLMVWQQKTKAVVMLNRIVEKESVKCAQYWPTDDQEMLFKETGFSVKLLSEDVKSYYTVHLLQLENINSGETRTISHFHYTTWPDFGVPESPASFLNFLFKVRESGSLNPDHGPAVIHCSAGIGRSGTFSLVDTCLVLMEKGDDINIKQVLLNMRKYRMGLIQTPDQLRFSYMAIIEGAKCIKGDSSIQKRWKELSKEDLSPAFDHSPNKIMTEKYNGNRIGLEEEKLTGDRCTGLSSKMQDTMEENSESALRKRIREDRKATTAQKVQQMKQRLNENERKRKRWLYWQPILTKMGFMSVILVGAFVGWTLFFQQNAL
In short: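 Degradation read-out: lytic HiBiT luminescence after 24 h treatment (37 °C, 5% CO2) of 5000 293T cells per well expressing HiBiT-fused PTPN2 from an N-terminal tag. Dosing was 11 points, half-log steps down from 10 μM, in duplicate; vehicle-treated and no-reagent wells served as controls.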

PTPN2 (B16F10.4 cells) = molecular target: T2, PTPN2 (B16F10.4 cells) (Mus musculus, UniProt Q06180); assay: HiBiT Degradation B16F10.4 PTPN2; assay type: cell-based; settings: 24.0 hours
T2 construct: HiBiT; host or cells: B16F10.4
T2 sequence (Q06180 1-406): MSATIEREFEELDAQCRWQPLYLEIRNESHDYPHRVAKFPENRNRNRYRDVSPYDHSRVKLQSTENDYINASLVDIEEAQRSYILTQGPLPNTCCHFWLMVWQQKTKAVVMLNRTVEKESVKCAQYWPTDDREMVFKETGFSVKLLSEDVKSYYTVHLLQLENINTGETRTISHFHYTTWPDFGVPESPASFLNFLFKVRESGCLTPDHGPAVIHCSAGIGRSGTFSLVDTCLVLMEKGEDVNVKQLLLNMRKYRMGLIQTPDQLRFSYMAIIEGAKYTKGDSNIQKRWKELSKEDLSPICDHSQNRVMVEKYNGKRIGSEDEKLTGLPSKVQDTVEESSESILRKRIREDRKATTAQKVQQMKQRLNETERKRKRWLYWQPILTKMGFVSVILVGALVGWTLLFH

Structure (SMILES): Cn1c(=O)n(C2CCC(=O)NC2=O)c2ccc(-c3cnn(CC(=O)Nc4cccc(CS(=O)(=O)N5CC[C@H](Nc6cccc(-c7sc(C(=O)O)c(OCC(=O)O)c7Cl)c6)CC5(C)C)c4)c3)cc21 (stereo partly drawn) [Example 194, 3-(carboxymethoxy)-4-chloro-5-[3-[[(4S)-1-[[3-[[2-[4-[1-(2,6-dioxo-3-piperidyl)-3-methyl-2-oxo-benzimidazol-5-yl]pyrazol-1-yl]acetyl]amino]phenyl]methylsulfonyl]-2,2-dimethyl-4-piperidyl]amino]phenyl]thiophene-2-carboxylic acid]
DC50 [1]: 200 to 1000 nM
DC50 (PTPN2 (B16F10.4 cells)): 50 to 200 nM

Structure (SMILES): CC1(C)C[C@H](Nc2cccc(-c3sc(C(=O)O)c(OCC(=O)O)c3Cl)c2)CCN1S(=O)(=O)Cc1cccc(NC(=O)N2CCC(c3ccc4c(C5CCC(=O)NC5=O)cnn4c3)CC2)c1 (stereo partly drawn) [Example 193, 3-(carboxymethoxy)-4-chloro-5-(3-(((4R)-1-((3-(4-(3-(2,6-dioxopiperidin-3-yl)pyrazolo[1,5-a]pyridin-6-yl)piperidine-1-carboxamido)benzyl)sulfonyl)-2,2-dimethylpiperidin-4-yl)amino)phenyl)thiophene-2-carboxylic acid]
DC50 [1]: 200 to 1000 nM
DC50 (PTPN2 (B16F10.4 cells)): 200 to 1000 nM

Structure (SMILES): Cn1c(=O)n(C2CCC(=O)NC2=O)c2ccc(N3CC(OC(=O)Nc4cccc(CS(=O)(=O)N5CC[C@H](Nc6cccc(-c7sc(C(=O)O)c(OCC(=O)O)c7Cl)c6)CC5(C)C)c4)C3)cc21 (stereo partly drawn) [Example 136]
DC50 [1]: 200 to 1000 nM
DC50 (PTPN2 (B16F10.4 cells)): ≥ 1000 nM

Structure (SMILES): CC1(C)C[C@@H](Nc2cccc(-c3sc(C(=O)O)c(OCC(=O)O)c3Cl)c2)CCN1S(=O)(=O)Cc1cccc(NC(=O)CN2CCC(n3c(=O)n(C4CCC(=O)NC4=O)c4ccccc43)CC2)c1 (stereo partly drawn) [Example 130, 3-(carboxymethoxy)-4-chloro-5-[3-[[(4S)-1-[[3-[[2-[4-[3-(2,6-dioxo-3-piperidyl)-2-oxo-benzimidazol-1-yl]-1-piperidyl]acetyl]amino]phenyl]methylsulfonyl]-2,2-dimethyl-4-piperidyl]amino]phenyl]thiophene-2-carboxylic acid]
DC50 [1]: 200 to 1000 nM
DC50 (PTPN2 (B16F10.4 cells)): 200 to 1000 nM

Structure (SMILES): Cn1c(=O)n(C2CCC(=O)NC2=O)c2ccc(CCC(=O)Nc3cccc(CS(=O)(=O)N4CCC(Nc5cccc(-c6sc(C(=O)O)c(OCC(=O)O)c6Cl)c5)CC4)c3)cc21 (stereo not drawn) [Example 49, 3-(carboxymethoxy)-4-chloro-5-(3-((1-((3-(3-(1-(2,6-dioxopiperidin-3-yl)-3-methyl-2-oxo-2,3-dihydro-1H-benzo[d]imidazol-5-yl)propanamido)benzyl)sulfonyl)piperidin-4-yl)amino)phenyl)thiophene-2-carboxylic acid]
DC50 [1]: 200 to 1000 nM
DC50 (PTPN2 (B16F10.4 cells)): 200 to 1000 nM

Structure (SMILES): O=C(O)COc1c(C(=O)O)sc(-c2cccc(NC3CCN(S(=O)(=O)Cc4cccc(NC(=O)CN5CCC(n6nc(C7CCC(=O)NC7=O)c7ccccc76)CC5)c4)CC3)c2)c1Cl (stereo not drawn) [Example 54]
DC50 [1]: ≥ 1000 nM
DC50 (PTPN2 (B16F10.4 cells)): ≥ 1000 nM

Structure (SMILES): Cn1c(=O)n(C2CCC(=O)NC2=O)c2ccc(C3CCN(C(=O)Nc4cccc(CS(=O)(=O)N5CC[C@@H](Nc6cccc(-c7sc(C(=O)O)c(OCC(=O)O)c7Cl)c6)CC5(C)C)c4F)CC3)cc21 (stereo partly drawn) [Example 131]
DC50 [1]: 200 to 1000 nM
DC50 (PTPN2 (B16F10.4 cells)): 50 to 200 nM

Structure (SMILES): Cn1c(=O)n(C2CCC(=O)NC2=O)c2ccc(N3CCC(N4CCN(c5cccc(CS(=O)(=O)N6CC[C@H](Nc7cccc(-c8sc(C(=O)O)c(OCC(=O)O)c8Cl)c7)CC6(C)C)c5)C4=O)CC3)cc21 (stereo partly drawn) [Example 198, 3-(carboxymethoxy)-4-chloro-5-[3-[[(4S)-1-[3-[3-[[1-[1-(2,6-dioxo-3-piperidyl)-3-methyl-2-oxo-benzimidazol-5-yl]-4-piperidyl]-2-oxo-imidazolidin-1-yl]phenyl]methylsulfonyl]-2,2-dimethyl-4-piperidyl]amino]phenyl]thiophene-2-carboxylic acid]
DC50 [1]: 50 to 200 nM
DC50 (PTPN2 (B16F10.4 cells)): 50 to 200 nM

Structure (SMILES): CC1(C)C[C@@H](Nc2cccc(-c3sc(C(=O)O)c(OCC(=O)O)c3Cl)c2)CCN1S(=O)(=O)Cc1cccc(NC(=O)C2CN(C(=O)CNc3ccc4c(c3)CN(C3CCC(=O)NC3=O)C4=O)C2)c1 (stereo partly drawn) [Example 57, 3-(carboxymethoxy)-4-chloro-5-[3-[[(4S)-1-[[3-[[1-[2-[[2-(2,6-dioxo-3-piperidyl)-1-oxo-isoindolin-5-yl]amino]acetyl]azetidine-3-carbonyl]amino]phenyl]methylsulfonyl]-2,2-dimethyl-4-piperidyl]amino]phenyl]thiophene-2-carboxylic acid]
DC50 [1]: 50 to 200 nM
DC50 (PTPN2 (B16F10.4 cells)): ≥ 1000 nM

Now from value to compound:

DC50 [1]: 50 to 200 nM
DC50 (PTPN2 (B16F10.4 cells)): 50 to 200 nM
Structure (SMILES): Cn1c(=O)n(C2CCC(=O)NC2=O)c2ccc(N3CCC(C(=O)Nc4cccc(CS(=O)(=O)N5CCC(Nc6cccc(-c7sc(C(=O)O)c(OCC(=O)O)c7Cl)c6)CC5)c4)CC3)cc21 (stereo not drawn) [Example 112, 3-(carboxymethoxy)-4-chloro-5-[3-[[1-[[3-[[1-[1-(2,6-dioxo-3-piperidyl)-3-methyl-2-oxo-benzimidazol-5-yl]piperidine-4-carbonyl]amino]phenyl]methylsulfonyl]-4-piperidyl]amino]phenyl]thiophene-2-carboxylic acid]

DC50 [1]: 50 to 200 nM
DC50 (PTPN2 (B16F10.4 cells)): 50 to 200 nM
Structure (SMILES): Cn1c(=O)n(C2CCC(=O)NC2=O)c2ccc(N3CCN(C(=O)Nc4cccc(CS(=O)(=O)N5CC[C@H](Nc6cccc(-c7sc(C(=O)O)c(OCC(=O)O)c7Cl)c6)CC5(C)C)c4)CC3)cc21 (stereo partly drawn) [Example 80, 3-(Carboxymethoxy)-4-chloro-5-[3-[[(4S)-1-[[3-[[4-[1-(2,6-dioxo-3-piperidyl)-3-methyl-2-oxo-benzimidazol-5-yl]piperazine-1-carbonyl]amino]phenyl]methylsulfonyl]-2,2-dimethyl-4-piperidyl]amino]phenyl]thiophene-2-carboxylic acid]

DC50 [1]: 50 to 200 nM
DC50 (PTPN2 (B16F10.4 cells)): 50 to 200 nM
Structure (SMILES): Cn1c(=O)n(C2CCC(=O)NC2=O)c2ccc(N3CCC(O)(CC(=O)Nc4cccc(CS(=O)(=O)N5CC[C@H](Nc6cccc(-c7sc(C(=O)O)c(OCC(=O)O)c7Cl)c6)CC5(C)C)c4)CC3)cc21 (stereo partly drawn) [Example 183, 3-(carboxymethoxy)-4-chloro-5-[3-[[(4S)-1-[[3-[[2-[1-[1-(2,6-dioxo-3-piperidyl)-3-methyl-2-oxo-benzimidazol-5-yl]-4-hydroxy-4-piperidyl]acetyl]amino]phenyl]methylsulfonyl]-2,2-dimethyl-4-piperidyl]amino]phenyl]thiophene-2-carboxylic acid]

DC50 [1]: 50 to 200 nM
DC50 (PTPN2 (B16F10.4 cells)): 50 to 200 nM
Structure (SMILES): CC1(C)C[C@@H](Nc2cccc(-c3sc(C(=O)O)c(OCC(=O)O)c3Cl)c2)CCN1S(=O)(=O)Cc1cccc(NC(=O)NCCCc2ccc3c4c(cccc24)N(C2CCC(=O)NC2=O)C3=O)c1 (stereo partly drawn) [Example 177, 3-(carboxymethoxy)-4-chloro-5-[3-[[(4S)-1-[3-[3-[[1-(2,6-dioxo-3-piperidyl)-2-oxo-benzo[cd]indol-5-yl]propylcarbamoylamino]phenyl]methylsulfonyl]-2,2-dimethyl-4-piperidyl]amino]phenyl]thiophene-2-carboxylic acid]

DC50 [1]: 50 to 200 nM
DC50 (PTPN2 (B16F10.4 cells)): < 50 nM
Structure (SMILES): O=C(O)COc1c(C(=O)O)sc(-c2cccc(N[C@H]3CCN(S(=O)(=O)Cc4cccc(NC(=O)N5CCC(c6ccc7c8c(cccc68)C(=O)N7C6CCC(=O)NC6=O)CC5)c4)C4(CC4)C3)c2)c1Cl (stereo partly drawn) [Example 229, 3-(carboxymethoxy)-4-chloro-5-(3-(((7S)-4-((3-(4-(1-(2,6-dioxopiperidin-3-yl)-2-oxo-1,2-dihydrobenzo[cd]indol-6-yl)piperidine-1-carboxamido)benzyl)sulfonyl)-4-azaspiro[2.5]octan-7-yl)amino)phenyl)thiophene-2-carboxylic acid]

DC50 [1]: < 50 nM
DC50 (PTPN2 (B16F10.4 cells)): < 50 nM
Structure (SMILES): CC1(C)C[C@@H](Nc2cccc(-c3sc(C(=O)O)c(OCC(=O)O)c3Cl)c2)CCN1S(=O)(=O)Cc1cccc(NC(=O)[C@H]2CC[C@H](c3ccc4c5c(cccc53)C(=O)N4C3CCC(=O)NC3=O)CC2)c1 (stereo partly drawn) [Example 165, 3-(carboxymethoxy)-4-chloro-5-(3-(((4S)-1-((3-((1r,4S)-4-(1-(2,6-dioxopiperidin-3-yl)-2-oxo-1,2-dihydrobenzo[cd]indol-6-yl)cyclohexane-1-carboxamido)benzyl)sulfonyl)-2,2-dimethylpiperidin-4-yl)amino)phenyl)thiophene-2-carboxylic acid]
